From publication PMC10220892 (Pharmaceutics, 2023)
In brackets after ≈: the same amount, converted by molar mass.

Columns and labels:
U87MG-EGFRvIII cells [1] = assay: Apoptosis analysis by flow cytometry (Annexin V-FITC/PI); format: cell-based; conditions: 48 h
Procedure: (§1) U87MG-EGFRvIII cells were seeded into 6-well plates and treated with different concentrations of the compound SMUZ106 (2.5, 5, and 10 μM) for 48 h. Following the treatment, the cells were harvested, washed twice with cold PBS, and fixed overnight at 4 °C in 70% ethanol, then stained with PI solution to analyze the cell cycle distribution via flow cytometry. The results were determined using the ModFit LT 5.0 software. Each assay was performed in triplicates.
To perform the apoptosis analysis, after being washed with PBS, the cells were resuspended in 195 μL Annexin V-FITC binding solution, and then 5 µL of Annexin V-FITC was added, followed by 10 µL PI. Following incubation at room temperature for 20 min in the dark, cell apoptosis rates were detected by flow cytometry. The data were analyzed using FlowJo_V10 software.

[2] = test system: panel of 76 tyrosine kinases; assay: Kinase selectivity screen (HTRF KinEASE-TK); format: biochemical; conditions: 1 μM, 76 kinases
Procedure: (§2) IC50 determinations for EGFR were performed with the Z’-LYTE technology platform (Life Technologies), according to the manufacturer’s instructions. The enzyme activity assays of compound SMUZ106 were performed at a single-point concentration (1 μM) against 76 kinases by using the HTRF KinEASE-TK assay according to the manufacturer’s instructions.

[3] = test system: U87MG-TMZR cells (TMZ-resistant U87MG cells); assay: MTT cell viability assay; format: cell-based; conditions: Homo sapiens, U-87 MG, 72 h
Procedure: (§3) U87MG, U251, U87MG-EGFRvIII, and U87MG-TMZR cells were cultured in DMEM supplemented with 10% FBS and plated at low density in 96-well plates (2000 cells per well). Then, the cells were treated with different concentrations of gefitinib or compound SMUZ106 for a period of 72 h. MTT (5 mg/mL) was added to each well, and the cells were incubated for another 4 h at 37 °C. The optical density value at 570 nm was measured using a microplate reader (TECAN, Männedorf, Switzerland).

U87MG-EGFRvIII cells [4] = assay: MTT cell viability assay; format: cell-based; conditions: 72 h
Procedure: as §3

U87MG cells [5] = assay: MTT cell viability assay; format: cell-based; conditions: Homo sapiens, U-87 MG, 72 h
Procedure: as §3

U251 cells [6] = assay: MTT cell viability assay; format: cell-based; conditions: Homo sapiens, U-251, 72 h
Procedure: as §3

HER4 [7] = molecular target: T1, HER4 (Homo sapiens, UniProt Q15303); design: method as in PMID 27132165; conditions: Figure S1; read-out: IC50 HER4 kinase; cited from earlier work
T1 sequence (Q15303 26-1308): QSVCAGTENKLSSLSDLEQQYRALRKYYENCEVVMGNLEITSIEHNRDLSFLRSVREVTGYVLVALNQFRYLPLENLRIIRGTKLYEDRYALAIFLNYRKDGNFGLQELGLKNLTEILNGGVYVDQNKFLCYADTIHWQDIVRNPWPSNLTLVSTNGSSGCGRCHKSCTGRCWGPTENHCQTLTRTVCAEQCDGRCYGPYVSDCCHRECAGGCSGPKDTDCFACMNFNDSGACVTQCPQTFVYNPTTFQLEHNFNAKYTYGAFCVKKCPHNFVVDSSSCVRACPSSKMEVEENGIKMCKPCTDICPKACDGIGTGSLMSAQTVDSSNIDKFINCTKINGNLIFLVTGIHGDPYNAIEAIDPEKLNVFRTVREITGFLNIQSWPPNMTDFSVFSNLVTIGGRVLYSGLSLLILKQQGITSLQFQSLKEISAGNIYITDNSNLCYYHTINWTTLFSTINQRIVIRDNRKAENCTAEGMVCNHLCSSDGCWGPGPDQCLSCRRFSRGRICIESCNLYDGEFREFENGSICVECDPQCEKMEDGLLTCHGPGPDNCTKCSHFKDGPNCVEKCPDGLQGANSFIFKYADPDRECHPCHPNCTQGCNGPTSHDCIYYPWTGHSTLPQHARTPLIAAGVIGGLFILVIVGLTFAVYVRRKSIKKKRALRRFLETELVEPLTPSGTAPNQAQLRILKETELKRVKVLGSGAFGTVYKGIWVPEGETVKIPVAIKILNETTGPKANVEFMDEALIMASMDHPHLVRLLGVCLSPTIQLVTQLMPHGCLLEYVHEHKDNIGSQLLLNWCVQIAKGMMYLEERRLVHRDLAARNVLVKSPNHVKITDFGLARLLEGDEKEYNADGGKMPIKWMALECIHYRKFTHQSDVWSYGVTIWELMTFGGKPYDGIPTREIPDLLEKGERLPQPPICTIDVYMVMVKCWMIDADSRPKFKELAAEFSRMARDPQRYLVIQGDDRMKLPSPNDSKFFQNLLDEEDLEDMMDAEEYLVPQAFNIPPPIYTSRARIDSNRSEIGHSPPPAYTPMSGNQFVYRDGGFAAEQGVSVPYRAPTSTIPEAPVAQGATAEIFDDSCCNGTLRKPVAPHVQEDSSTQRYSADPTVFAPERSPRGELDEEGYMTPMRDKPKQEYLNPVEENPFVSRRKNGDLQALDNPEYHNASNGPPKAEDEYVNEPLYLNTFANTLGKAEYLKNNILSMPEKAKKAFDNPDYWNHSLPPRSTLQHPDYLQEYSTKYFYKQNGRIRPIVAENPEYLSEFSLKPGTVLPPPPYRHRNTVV

HER2 [8] = molecular target: T2, HER2 (Homo sapiens, UniProt P04626); assay: HTRF KinEASE-TK single-point kinase assay; format: biochemical; conditions: read-out: inhibition rate HER2
T2 sequence (P04626 23-1255): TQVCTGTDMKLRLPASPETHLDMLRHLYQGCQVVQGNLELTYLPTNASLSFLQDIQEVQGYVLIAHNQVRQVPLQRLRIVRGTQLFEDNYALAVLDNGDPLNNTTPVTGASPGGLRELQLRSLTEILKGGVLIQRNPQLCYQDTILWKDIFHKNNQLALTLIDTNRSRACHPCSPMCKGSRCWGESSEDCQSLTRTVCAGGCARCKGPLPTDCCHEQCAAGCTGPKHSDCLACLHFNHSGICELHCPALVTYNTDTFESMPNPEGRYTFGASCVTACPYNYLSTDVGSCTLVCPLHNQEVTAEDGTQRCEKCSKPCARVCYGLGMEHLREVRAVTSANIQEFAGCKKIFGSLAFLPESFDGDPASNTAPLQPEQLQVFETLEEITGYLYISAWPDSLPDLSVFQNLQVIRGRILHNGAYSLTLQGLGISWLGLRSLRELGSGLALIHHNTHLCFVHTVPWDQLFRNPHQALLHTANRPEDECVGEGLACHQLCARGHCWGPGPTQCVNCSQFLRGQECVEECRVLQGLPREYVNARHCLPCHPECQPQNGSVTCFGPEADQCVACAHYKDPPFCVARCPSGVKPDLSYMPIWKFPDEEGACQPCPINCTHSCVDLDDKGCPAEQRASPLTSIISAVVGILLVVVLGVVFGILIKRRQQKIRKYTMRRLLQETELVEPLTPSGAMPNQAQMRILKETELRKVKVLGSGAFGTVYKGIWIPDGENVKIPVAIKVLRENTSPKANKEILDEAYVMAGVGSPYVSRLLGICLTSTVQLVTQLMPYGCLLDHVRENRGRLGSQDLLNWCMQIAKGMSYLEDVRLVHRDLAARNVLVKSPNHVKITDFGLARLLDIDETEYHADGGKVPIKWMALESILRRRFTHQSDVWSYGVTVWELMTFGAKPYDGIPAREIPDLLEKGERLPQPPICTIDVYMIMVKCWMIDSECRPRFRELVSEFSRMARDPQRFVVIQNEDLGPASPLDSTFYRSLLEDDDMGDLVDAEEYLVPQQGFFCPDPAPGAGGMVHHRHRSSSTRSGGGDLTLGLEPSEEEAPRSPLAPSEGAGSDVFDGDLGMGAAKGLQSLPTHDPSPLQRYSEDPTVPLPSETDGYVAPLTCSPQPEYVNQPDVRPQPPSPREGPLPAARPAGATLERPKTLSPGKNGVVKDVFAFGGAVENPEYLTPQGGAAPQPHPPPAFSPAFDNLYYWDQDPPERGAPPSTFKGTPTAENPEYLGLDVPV
Procedure: as §2

EGFR [9] = molecular target: T3, EGFR (Homo sapiens, UniProt P00533); assay: HTRF KinEASE-TK single-point kinase assay; format: biochemical; conditions: read-out: inhibition rate EGFR
T3 sequence (P00533 25-1210): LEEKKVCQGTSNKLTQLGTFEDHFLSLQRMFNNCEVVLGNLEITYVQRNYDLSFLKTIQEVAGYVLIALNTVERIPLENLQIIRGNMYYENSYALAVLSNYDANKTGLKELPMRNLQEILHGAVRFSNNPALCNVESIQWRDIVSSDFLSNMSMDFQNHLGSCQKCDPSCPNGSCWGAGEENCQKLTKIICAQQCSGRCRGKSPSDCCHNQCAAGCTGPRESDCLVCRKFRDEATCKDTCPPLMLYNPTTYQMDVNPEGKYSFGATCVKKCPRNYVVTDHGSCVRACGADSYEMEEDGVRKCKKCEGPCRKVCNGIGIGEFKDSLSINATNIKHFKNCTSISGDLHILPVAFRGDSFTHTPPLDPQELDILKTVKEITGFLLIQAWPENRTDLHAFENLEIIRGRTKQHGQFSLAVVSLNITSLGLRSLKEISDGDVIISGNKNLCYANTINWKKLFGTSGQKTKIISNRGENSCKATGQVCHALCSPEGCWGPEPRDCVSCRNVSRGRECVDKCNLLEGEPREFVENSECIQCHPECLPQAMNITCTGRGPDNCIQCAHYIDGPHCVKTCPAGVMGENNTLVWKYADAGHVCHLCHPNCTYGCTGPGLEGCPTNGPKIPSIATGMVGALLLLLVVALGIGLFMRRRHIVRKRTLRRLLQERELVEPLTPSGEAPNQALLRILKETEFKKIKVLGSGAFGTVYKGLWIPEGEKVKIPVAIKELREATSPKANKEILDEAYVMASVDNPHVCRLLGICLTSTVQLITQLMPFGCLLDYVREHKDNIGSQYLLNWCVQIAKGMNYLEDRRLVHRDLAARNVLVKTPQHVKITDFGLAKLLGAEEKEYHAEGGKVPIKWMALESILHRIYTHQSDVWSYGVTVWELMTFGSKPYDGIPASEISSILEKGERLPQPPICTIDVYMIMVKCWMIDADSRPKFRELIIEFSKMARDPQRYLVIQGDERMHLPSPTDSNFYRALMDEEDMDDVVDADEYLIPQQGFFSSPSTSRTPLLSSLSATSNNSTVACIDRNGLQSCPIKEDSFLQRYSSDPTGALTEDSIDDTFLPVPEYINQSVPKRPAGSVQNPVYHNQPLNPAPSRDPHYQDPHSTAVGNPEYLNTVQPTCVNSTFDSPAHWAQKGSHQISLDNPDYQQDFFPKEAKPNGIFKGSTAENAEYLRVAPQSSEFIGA
Procedure: as §2

HER4 [10] = molecular target: T1, HER4; assay: HTRF KinEASE-TK single-point kinase assay; format: biochemical; conditions: read-out: inhibition rate HER4
Procedure: as §2

[11] = Pharmacokinetics study in mice; format: in vivo; conditions: male, Kunming, mouse, plasma
Procedure: A total of 72 male Kunming mice with an average weight of 20 g were purchased from Southern Medical University (Guangzhou, China) and divided into three groups, with […]. SMUZ106 was dissolved in 0.5% CMC-Na to prepare a suspension for oral administration (100 mg/kg). […] For the intravenous and oral administration, blood samples (0.5 mL) were collected from the mice’s orbital veins and placed into heparinized tubes at 0.25, 0.5, 1, 2, 6, 8, 12, and 24 h following administration. After centrifuging all the samples at 8000 r/min for 5 min, the supernatants were stored at −80 °C until analysis. Subsequently, the plasma samples were transferred to a clean 1.5 mL centrifuge tube and spiked with 100 μL of the internal standard solution (gefitinib, 1.0 μg/mL). Methyl alcohol was then added to the mixture, vortexed for 2 min, and centrifuged at 13,000 r/min for 30 min. […] A 10 µL aliquot of each sample was injected into the LC-MS/MS system for analysis. The pharmacokinetic parameters, such as half-life (t1/2), time of peak plasma concentration (Tmax), maximum plasma concentration (Cmax), mean residence time (MRT), area under the concentration–time curve (AUC), and bioavailability (F), were determined using DAS 2.0 software.

U87MG-EGFRvIII cells [12] = assay: Cell cycle analysis by flow cytometry (PI); format: cell-based; conditions: 48 h; for cells in S phase: control 35.68%; for cells in G0/G1 phase: control 50.82%
Procedure: as §1

phospho-EGFR [13] = assay: Western blotting of EGFR signaling in U87MG cells; format: cell-based; conditions: 2.5, 5 and 10 μM, 48 h
Procedure: (§4) The GBM cells were exposed to compound SMUZ106 at different concentrations (2.5, 5, and 10 μM) for 48 h, and the total proteins were extracted from the cells using RIPA lysis buffer. The concentration of the obtained protein was determined using the BCA Protein Assay Kit (Thermo Fisher, Waltham, MA, USA). Equivalent protein samples (30 μg) were subjected to SDS-PAGE gels and transferred to NC membranes (PALL, Port Washington, NY, USA). Then, the membranes were blocked with 5% milk in TBST for 1 h at RT and probed with primary antibodies diluted overnight at 4 °C, followed by incubation with appropriate secondary antibodies for 1 h at RT. Finally, the protein bands were visualized and scanned using an imaging system (ProteinSimple, Santa Clara, CA, USA).

phospho-EGFR [14] = assay: Western blotting of EGFR signaling in U87MG-EGFRvIII cells; format: cell-based; conditions: 2.5, 5 and 10 μM, 48 h
Procedure: as §4

U87MG-EGFRvIII cells [15] = assay: Colony formation assay; format: cell-based; conditions: 1, 3 and 10 μM
Procedure: (§5) U87MG, U251, U87MG-EGFRvIII, and U87MG-TMZR cells were trypsinized, and suspended in 6-well plates. After a period of 24 h, the cells were exposed to compound SMUZ106 with different concentrations (1, 3, and 10 μM), and the U87MG-TMZR cells were exposed to compound SMUZ106 with different concentrations (3, 10, and 30 μM) for 72 h. After 10–14 days of cultivation, the cells were stained with 0.4% trypan blue to visualize the formed colony and to count the number of colonies by Enzyme-Linked Immunospot Analyzer (CTL, Shaker Heights, OH, USA).

U87MG cells [16] = assay: Colony formation assay; format: cell-based; conditions: 1, 3 and 10 μM
Procedure: as §5

U87MG-TMZR cells = assay: Colony formation assay; format: cell-based; conditions: 3, 10 and 30 μM
Procedure: as §5

U251 cells [17] = assay: Colony formation assay; format: cell-based; conditions: 1, 3 and 10 μM
Procedure: as §5

Solubility by HPLC = format: physicochemical
Procedure: The solubility of the compound SMUZ106 and its related salts in artificial gastric juice, artificial intestinal fluid, and physiological saline were determined by HPLC. […] Therefore, SMUZ106 hydrochloride was selected for the pharmacokinetic analysis.

EGFR [18] = molecular target: T3, EGFR; design: method as in PMID 27132165; conditions: read-out: IC50 EGFR kinase; cited from earlier work
HER2 [19] = molecular target: T2, HER2; design: method as in PMID 27132165; conditions: Figure S1; read-out: IC50 HER2 kinase; cited from earlier work

Question: Which “percentage of apoptotic cells” value (U87MG-EGFRvIII cells [1]; 2.5 μM) does the source give for `c1cnc2ccc(Nc3ncnc4ccc(-c5cnn(C6CCNCC6)c5)cc34)cc2c1` [SMUZ106, 6-(1-(piperidin-4-yl)-1H-pyrazol-4-yl)-N-(quinolin-6-yl)quinazolin-4-amine] here?
Answer: 2.34%

Question: What about the “percentage of apoptotic cells” value (U87MG-EGFRvIII cells [1]; 5 μM) of the same compound?
Answer: 2.70%

Question: And the “percentage of apoptotic cells” value (U87MG-EGFRvIII cells [1]; 10 μM)?
Answer: 3.02%

Question: And the kinase selectivity [2]?
Answer: excellent selectivity to EGFR

Question: And the IC50 [3]?
Answer: 7.86 µM

Question: What about the IC50 (U87MG-EGFRvIII cells [4]) of the same compound?
Answer: 4.36 µM

Question: What about the IC50 (U87MG cells [5]) of the same compound?
Answer: 7.43 µM

Question: What about the IC50 (U251 cells [6]) of the same compound?
Answer: 10.3 µM

Question: What about the IC50 (HER4 [7]) of the same compound?
Answer: 0.93 µM

Question: What about the inhibition at 1 µM (HER2 [8]) of the same compound?
Answer: 75.4%

Question: And the inhibition at 1 µM (EGFR [9])?
Answer: 98.7%

Question: What about the inhibition at 1 µM (HER4 [10]) of the same compound?
Answer: 87.3%

Question: And the bioavailability ([11]; oral, p.o. 100 mg/kg vs i.v. 25 mg/kg, read-out: F (absolute bioavailability))?
Answer: 29%

Question: And the AUC(0-inf) ([11]; po, p.o. 100 mg/kg)?
Answer: 7510 ± 1060 ng·h/mL

Question: And the Cmax ([11]; po, p.o. 100 mg/kg)?
Answer: 1190 ± 464 ng/mL

Question: What about the Tmax ([11]; po, p.o. 100 mg/kg) of the same compound?
Answer: 6 h

Question: And the half-life ([11]; po, p.o. 100 mg/kg)?
Answer: 0.87 ± 0.01 h

Question: What about the MRT last ([11]; po, p.o. 100 mg/kg, read-out: MRT0→t) of the same compound?
Answer: 6.32 ± 0.22 h

Question: And the “cells in S phase” value (U87MG-EGFRvIII cells [12]; 2.5 μM)?
Answer: 27.08%

Question: What about the “cells in G0/G1 phase” value (U87MG-EGFRvIII cells [12]; 2.5 μM) of the same compound?
Answer: 54.44%

Question: And the “cells in S phase” value (U87MG-EGFRvIII cells [12]; 5 μM)?
Answer: 24.01%

Question: What about the “cells in G0/G1 phase” value (U87MG-EGFRvIII cells [12]; 5 μM) of the same compound?
Answer: 58.17%

Question: And the “cells in S phase” value (U87MG-EGFRvIII cells [12]; 10 μM)?
Answer: 20.78%

Question: And the “cells in G0/G1 phase” value (U87MG-EGFRvIII cells [12]; 10 μM)?
Answer: 62.50%

Question: What about the “phosphorylation levels of AKT and Erk1/2” value (phospho-EGFR [13]) of the same compound?
Answer: did not significantly downregulate

Question: What about the “protein expression level of total EGFR” value (phospho-EGFR [13]) of the same compound?
Answer: remained unchanged

Question: And the “protein level of phospho-EGFR” value (phospho-EGFR [13])?
Answer: decreased dose dependently

Question: What about the “phosphorylation levels of AKT and Erk1/2” value (phospho-EGFR [14]) of the same compound?
Answer: did not significantly downregulate

Question: What about the “protein expression level of total EGFR” value (phospho-EGFR [14]) of the same compound?
Answer: remained unchanged

Question: And the “protein level of phospho-EGFR” value (phospho-EGFR [14])?
Answer: decreased dose dependently

Question: And the “clonogenicity (number of colonies)” value (U87MG-EGFRvIII cells [15])?
Answer: significantly decreased the clonogenicity

Question: What about the “clonogenicity (number of colonies)” value (U87MG cells [16]) of the same compound?
Answer: significantly decreased the clonogenicity

Question: And the clone formation (U87MG-TMZR cells)?
Answer: could inhibit the proliferation of TMZ-resistant U87MG cells

Question: What about the “clonogenicity (number of colonies)” value (U251 cells [17]) of the same compound?
Answer: significantly decreased the clonogenicity

Question: And the solubility (Solubility by HPLC; artificial gastric juice, simulated gastric fluid)?
Answer: 16.8 mg/mL (≈ 39.8 mM)

Question: What about the solubility (Solubility by HPLC; artificial intestinal juice, fassgf or other biorelevant) of the same compound?
Answer: 0.22 mg/mL (≈ 0.522 mM)

Question: What about the solubility (Solubility by HPLC; medium not named in the sentence (values match artificial gastric juice of Table S2)) of the same compound?
Answer: 16.8 mg/mL (≈ 39.8 mM)

Question: What about the solubility (Solubility by HPLC; normal saline, saline or isotonic) of the same compound?
Answer: 3.69 mg/mL (≈ 8.75 mM)

Question: What about the IC50 (EGFR [18]) of the same compound?
Answer: 0.0441 µM

Question: What about the IC50 (HER2 [19]) of the same compound?
Answer: 0.874 µM

Question: With `Cn1nnc2c(C(N)=O)ncn2c1=O` [TMZ, temozolomide, reference compound] as the compound, how does the IC50 [3] read?
Answer: 2040 µM

Question: And the IC50 (U87MG cells [5])?
Answer: 501 µM
